Read-outs that look alike come from different tables or passages of the source.
Experiments:
Assay in all cases: CellTiter-Glo in vitro cell proliferation assay, Example 8
[1] = system: SiHA cells; type: cell-based, Human; settings: read-out: Mean IC50
Procedure, shortened: (§1)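 Growth was assessed on cells given 24 h to settle at 37 °C, then incubated 72 h with compound (0.0075–100 μM, DMSO carrier). A room-temperature, 60 min CellTiter-Glo step preceded luminescence measurement.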

[2] = system: MOLP-8 cells; type: cell-based, Human; settings: read-out: Mean IC50
Procedure, shortened: as §1

[3] = system: KMM-1 cells; type: cell-based, Human; settings: read-out: Mean IC50
Procedure, shortened: as §1

[4] = system: KMS-34 cells; type: cell-based, Human; settings: read-out: Mean IC50
Procedure, shortened: as §1

[5] = system: BxPC-3 cells; type: cell-based, Human; settings: BxPC-3, Pancreatic, read-out: Mean IC50
Procedure, shortened: as §1

[6] = system: HCC70 cells; type: cell-based, Human; settings: read-out: Mean IC50
Procedure, shortened: as §1

[7] = system: KHM-1B cells; type: cell-based, Human; settings: Human Myeloma, 72 hours, read-out: Mean IC50
Procedure, shortened: as §1

[8] = system: A2780 cells; type: cell-based, Human; settings: A2780, Ovarian, read-out: Mean IC50
Procedure, shortened: as §1

[9] = system: ASPC-1 cells; type: cell-based, Human; settings: ASPC-1, Pancreatic, read-out: Mean IC50
Procedure, shortened: as §1

[10] = system: HEC-1a cells; type: cell-based, Human; settings: Endometrial, read-out: Mean IC50
Procedure, shortened: as §1

[11] = system: JIM1 cells; type: cell-based, Human; settings: read-out: Mean IC50
Procedure, shortened: as §1

[12] = system: H1975 (EGFR mut) cells; type: cell-based, Human; settings: read-out: Mean IC50
Procedure, shortened: as §1

[13] = system: A2780CP cells; type: cell-based, Human; settings: Ovarian, read-out: Mean IC50
Procedure, shortened: as §1

[14] = system: MM.1s cells; type: cell-based, Human; settings: MM1.S; MM.IS, Human Myeloma, 72 hours; read-out: Mean IC50
Procedure, shortened: as §1

[15] = system: DOHH-2 cells; type: cell-based, Human; settings: read-out: Mean IC50
Procedure, shortened: as §1

[16] = system: L363 cells; type: cell-based, Human; settings: read-out: Mean IC50
Procedure, shortened: as §1

[17] = system: KMS-27 cells; type: cell-based, Human; settings: KMS-27, Human Myeloma, 72 hours; read-out: Mean IC50
Procedure, shortened: as §1

[18] = system: FaDu cells; type: cell-based, Human; settings: read-out: Mean IC50
Procedure, shortened: as §1

[19] = system: AN3CA cells; type: cell-based, Human; settings: Endometrial, read-out: Mean IC50
Procedure, shortened: as §1

[20] = system: MIA PaCa-2 cells; type: cell-based, Human; settings: MIA PaCa-2, Pancreatic, read-out: Mean IC50
Procedure, shortened: as §1

[21] = system: OCI-LY3 cells; type: cell-based, Human; settings: read-out: Mean IC50
Procedure, shortened: as §1

[22] = system: A498 cells; type: cell-based, Human; settings: read-out: Mean IC50
Procedure, shortened: as §1

[23] = system: MDA-MB-231 cells; type: cell-based, Human; settings: read-out: Mean IC50
Procedure, shortened: as §1

[24] = system: KMS-11 cells; type: cell-based, Human; settings: KMS-11, Human Myeloma, 72 hours; read-out: Mean IC50
Procedure, shortened: as §1

[25] = system: H1650 (EGFR mut) cells; type: cell-based, Human; settings: read-out: Mean IC50
Procedure, shortened: as §1

[26] = system: H929 cells; type: cell-based, Human; settings: NCI-H929; H929, Human Myeloma, 72 hours; read-out: Mean IC50
Procedure, shortened: as §1

[27] = system: MDA-MB-468 cells; type: cell-based, Human; settings: read-out: Mean IC50
Procedure, shortened: as §1

[28] = system: N87 cells; type: cell-based; settings: Homo sapiens; N87, Gastric, 72 hours; read-out: Mean IC50
Description: (§2) In this Example, in vitro cell proliferation assays were performed using: (1) Human Myeloma tumor cell lines; (2) Human Lymphoma tumor cell lines; (3) Solid Human tumor cell lines; and (4) Parental, Lenalidomide resistant and Bortezomib resistant Jeko-1 Mantle cell Lymphoma tumor cell lines. The compounds tested were three diharmaline compounds, namely the 518B562 (or simply 562), 560, and 561 compounds. In addition, a monoharmaline product designated as 518F014 was also tested. This monoharmaline product had the following structure:
(§3) Each proliferation assay was carried out as follows. The test cells were plated in growth media using a 384-well microtiter plate at 50 μL volume. The cells were incubated for 24 hours at 37° C. in a humidified incubator. After 24 hours of incubation, the test compounds were added to the test wells in DSMO solvent, at concentrations ranging from 0.0075-100 μM. Control wells received equal volumes of DSMO, without compound. Following drugging, the cells were incubated for 72 hours at 37° C. in a humidified incubator. After this exposure, 100 μL of a 1:1 mixture of sterile water and CellTiter-Glo® reagent (Promega) was added to each well. The plates were then incubated for 60 minutes at room temperature, followed by recording the luminescence value of each well using a luminometer as a measure of cell proliferation.

[29] = system: Jeko-1 Lenalidomide resistant cells; type: cell-based; settings: Homo sapiens, Mantle Cell Lymphoma, 72 hours
Description: as §2, §3

[30] = system: RXF-393 cells; type: cell-based; settings: Homo sapiens; RXF-393, Renal, 72 hours; read-out: Mean IC50
Description: as §2, §3

[31] = system: Jeko-1 Bortezomib resistant cells; type: cell-based; settings: Homo sapiens, Mantle Cell Lymphoma, 72 hours
Description: as §2, §3

[32] = system: SU-DHL-6 cells; type: cell-based; settings: Homo sapiens; SU-DHL-6, Diffuse Large B-Cell Lymphoma, 72 hours; read-out: Mean IC50
Description: as §2, §3

[33] = system: Jeko-1 Parental cells; type: cell-based; settings: Homo sapiens, Mantle Cell Lymphoma, 72 hours
Description: as §2, §3

[34] = system: SU-DHL-4 cells; type: cell-based; settings: Homo sapiens; SU-DHL-4, Diffuse Large B-Cell Lymphoma, 72 hours; read-out: Mean IC50
Description: as §2, §3

[35] = system: RPMI-8226 cells; type: cell-based, Human; settings: RPMI-8226, HMM
Procedure, shortened: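 After 24 h plating, cells exposed to compound in DMSO over 0.0075–100 µM for 72 h at 37 °C. Viability read by CellTiter-Glo luminescence after 60 min at room temperature, relative to DMSO controls.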

[36] = Homo sapiens, Squamous, 72 hours

COc1ccc2c(c1)=NC1=C(CCc3ccc(O)c(OC)c3)NCCC=21 [518F014]
IC50 [1, 36]: > 100 µM
IC50 ([2]; MOLP-8, Human Myeloma, 72 hours): 86.4 µM
IC50 ([3]; KMM-1, Human Myeloma, 72 hours): 82.2 µM
IC50 ([4]; KMS-34, Human Myeloma, 72 hours): > 100 µM
IC50 ([5]; Homo sapiens, 72 hours): 98.7 µM
IC50 ([6]; Homo sapiens, HCC70, Triple Negative Breast, 72 hours): > 100 µM
IC50 [7]: 94.1 µM
IC50 ([8]; Homo sapiens, 72 hours): 70.9 µM
IC50 ([9]; Homo sapiens, ASPC1, 72 hours): 87.1 µM
IC50 ([10]; Homo sapiens, 72 hours): > 100 µM
IC50 ([11]; JIM1, Human Myeloma, 72 hours): 85.2 µM
IC50 ([12]; Homo sapiens, NCI-H1975, Non Small Cell Lung, 72 hours): 79.7 µM
IC50 ([13]; Homo sapiens, A2780C/P, 72 hours): > 100 µM
IC50 [14]: > 100 µM
IC50 ([15]; Homo sapiens, DOHH-2, Diffuse Large B-Cell Lymphoma, 72 hours): > 100 µM
IC50 ([16]; L-363, L363, Human Myeloma, 72 hours): 99.1 µM
IC50 [17]: 91.2 µM
IC50 [18, 36]: > 100 µM
IC50 ([19]; Homo sapiens, AN3-CA, 72 hours): 88.1 µM
IC50 ([20]; Homo sapiens, 72 hours): > 100 µM
IC50 ([21]; Homo sapiens, OCI-LY3, Diffuse Large B-Cell Lymphoma, 72 hours): > 100 µM
IC50 ([22]; Homo sapiens, A498, Renal, 72 hours): > 100 µM
IC50 ([23]; Homo sapiens, MDA-MB-231, Triple Negative Breast, 72 hours): 78.2 µM
IC50 [24]: > 100 µM
IC50 ([25]; Homo sapiens, NCI-H1650, Non Small Cell Lung, 72 hours): > 100 µM
IC50 [26]: 80.3 µM
IC50 ([27]; Homo sapiens, MDA-MB-468, Triple Negative Breast, 72 hours): > 100 µM
IC50 [28]: 40.6 µM
IC50 [29]: 79.4 µM
IC50 [30]: 96.5 µM
IC50 [31]: 87.6 µM
IC50 [32]: 50 µM
IC50 [33]: 89.4 µM
IC50 [34]: 91.3 µM

COc1ccc2c3c([nH]c2c1)C(CC(CC1=NCCc2c1[nH]c1cc(OC)ccc21)C1CCCCC1)=NCC3 [compound 30]
IC50 [35]: 4.3 µM
IC50 ([1]; Cervical - SC): 17.8 µM
IC50 ([2]; MOLP-8, MM IgD): 2.7 µM
IC50 ([3]; KMM-1, HMCL-A): 5.81 µM
IC50 ([4]; KMS-34, HMCL-B): 4.81 µM
IC50 [5]: 7.73 µM
IC50 ([6]; HCC70, TNBC): 18.5 µM
IC50 [8]: 6.45 µM
IC50 [9]: 11 µM
IC50 [10]: 9.91 µM
IC50 ([11]; JIM1, HMCL): 7.07 µM
IC50 ([12]; NSCLC): 11.4 µM
IC50 [13]: 8.55 µM
IC50 ([15]; DoHH-2, GCB-DLBCL): 5.36 µM
IC50 ([16]; L363, PCL/MM): 5.57 µM
IC50 ([18]; H&N - SC): 6.82 µM
IC50 [19]: 5.01 µM
IC50 [20]: 5.47 µM
IC50 ([21]; OCI-LY3, ABC-DLBCL): 7.28 µM
IC50 ([22]; A498, RCC): 17.1 µM
IC50 ([23]; MDA-MB-231, TNBC): 11.1 µM
IC50 ([25]; NSCLC): 16.6 µM
IC50 ([27]; MDA-MB-468, TNBC): 7.46 µM

From US12129265B2, “Therapeutic agents and uses thereof” (Ankh Life Sciences Limited, priority 2020, dated 2024)
